Values quoted from earlier work as cited in patent publication US6420311B1, “Polyether diamine—based surfactant adjuvants and compositions thereof” (Huntsman Petrochemical Corporation, priority 1999, dated 2002).

Conditions: free acid form

O=C(O)CNCP(=O)(O)O [glyphosate, N-phosphonomethylglycine]
water solubility: low
